Assay results published in patent US8759073B2, “Method for effectively controlling harmful organisms in large-scale culture of microalgae” (ENN Science & Technology Development Co., Ltd., priority 2009, dated 2014).
“Also recorded” adds a separate entry of the source.

Assays:
Amoeba = assay: Control of Amoeba contamination in microalgae culture, microscope examination; format: cell-based, Amoeba sp.
Excerpt: If the contaminated alga liquid is identified as alkali tolerant contamination, CO2 is aerated into the culture system of microalgae, so as to lower the pH value. At this time, the appearance of the algae cells and the harmful organisms are observed under a microscope. When the harmful organisms has been inhibited or inactivated, air is sufficiently aerated into the culture system and the pH value is adjusted back to the optimal pH suitable for microalgae growth. In an embodiment, the concentration of CO2 reaches saturation. In an alternative embodiment, the pH value can be adjusted back to the optimal pH suitable for microalgae growth with ammonia (one of the nitrogen sources used by microalgae). In an embodiment, the pH value can be adjusted back to the optimal pH suitable for microalgae growth with NaOH. In an embodiment, the used NaOH is 1M NaOH. In an embodiment, the pH is 5.6-5.7 in the alga culture system with a saturated concentration of CO2. In an alternative embodiment, if the algae are marine algae (such as in the case of Dunaliella tertiolecta), the aerated CO2 can maintain pH within the range of 6.0-6.5. After that, if the harmful organisms have been determined to be in control (for instance, most of Amoeba have become spherical), salinity is reduced by diluting with water (salinity is the ratio between the mass of the solute in seawater and the mass of seawater), followed by sufficient aeration with air, so as to adjust the pH and salinity to a condition suitable for alga growth. In an embodiment (for example, in the case that the alga is Nannochloris sp. or Dunaliella tertiolecta), CO2 can be aerated intermittently. In an embodiment, CO2 can be aerated at an interval of two hours. In an embodiment, the culture system is maintained at pH 6.0-6.5 for 2 days, followed by decreasing 1% of the salinity by adding water. In an embodiment, the culture system is maintained with saturated CO2 for about 28 hours. In an embodiment, CO2 is kept at saturation for about 27 hours in the culture system. In an embodiment, saturated CO2 is aerated continuously into the culture system for 36 hours. In an embodiment, CO2 is aerated periodically at an interval of 2 hours (pH is in the range of 5.0-8.5), for 2 days.
Microscope examination is always used as one of the bases for determining the growth status in the process of microalgae culture. As a result, all the early-stage contamination is found by microscope examination. For example, when the alga liquid without microscope examination is contaminated, it's color generally changes into e.g. brown or brown spots are observed on the wall of the reactor, etc. However the contamination has become severer once the color change is observed directly.
Salinity was reduced by 1% (e.g. from 9% to 8%) by way of dilution with water. Then air was sufficiently aerated.
Chlorella sp. […] Modified SM medium (see Table 2) was used. […] Then air was sufficiently aerated.
Chlorococcum sp. […] Modified BG11 medium (see Table 3) was used. […] CO2 was aerated continuously.
Chlorococcum sp. […] Modified BG11 medium (see Table 3) was used. […] Then air was sufficiently aerated. Eighteen hours later, Chlorococcum sp. could resume to grow.
Nannochloris sp. […] Modified BG11 medium (see Table 4) was used. […] Then CO2 was aerated periodically at an interval of 2 hours (pH ranged within 5.0-8.5).
Modified SM (see Table 2) was used. […] Then air was sufficiently aerated. Twenty-four hours later, the algae could resume to grow.
Then air was sufficiently aerated. Eighteen hours later, Chlorococcum sp. could resume to grow.
Modified SM (see Table 2) was used. […] One hour later, CO2 was aerated to saturation for 23 hour continuously (about pH 5.8). […] Then air was sufficiently aerated. Twenty-four hours later, the algae could resume to grow.

Chlorella sp. = assay: Growth of cultured algae after treatment, 320 L bubbling reactor
Method: pH of the normally cultured microalgae is adjusted into various ranges. The growth rate of the microalgae is measured and their appearance is observed under a microscope.
(§1) Chlorella sp. (purchased from FACHB collection, Wuhan Aquatic Research Institure, Chinses Academy of Sciences) was cultured in a 320 L bubbling reactor (manufactured by Longfang Jiangchuan plexiglass Co. Ltd., φ300 mm×2 m) out-of-doors under a sunlight film. The culture condition included: a temperature of about 25 °C, a humidity of 60%-80%, and an illumination of 8000-20000 lux. Modified SM (see Table 2) (pH 7.0-9.0 for the normal culture) was used. […] Then, CO2 was aerated to adjust pH to be 7.0-8.0.
Chlorella sp. (purchased from FACHB collection, Wuhan Aquatic Research Institure, Chinses Academy of Sciences) was cultured in a 320 L bubbling reactor (manufactured by Longfang Jiangchuan plexiglass Co. Ltd., φ300 mm×2 m) out-of-doors under a sunlight film. Modified SM medium (see Table 2) (pH 7.0-9.0 for the normal culture) was used. The culture condition included: a temperature of about 25 °C, a humidity of 60%-80%, and an illumination of 8000-20000 lux. […] Then air was sufficiently aerated, and pH was raised to 7.0-7.5 after 4 hours.
Chlorella sp. (obtained from Jinan University) was cultured in a 320 L bubbling reactor (manufactured by Longfang Jiangchuan plexiglass Co. Ltd., φ300 mm×2 m) out-of-doors under a sunlight film (with a temperature of about 25 °C, a humidity of 60%-80%, and an illumination of 8000-20000 lux). Modified SM medium (see Table 2) was used. When Amoeba, Oxyrrhis and ciliate contaminations were observed is with an oil immersion lens (Nikon fluorescent invert microscope Ti series), pH was adjusted to 11.0-11.8 with 1M NaOH. […] Then, CO2 was aerated continuously to saturation (pH 5.6). […] Then air was sufficiently aerated.
as §1, with “film. Modified SM medium (see Table 2) (pH 7.0-9.0 for the normal culture) was used.” for “film.”, “lux.” for “lux. Modified SM (see Table 2) (pH 7.0-9.0 for the normal culture) was used.”, “Then” for “Then,”, “aerated and pH was adjusted” for “aerated”, “to” for “to adjust pH to be”
Chlorella sp. (obtained from Jinan University) was cultured in a 320 L bubbling reactor (manufactured by Longfang Jiangchuan plexiglass Co. Ltd., φ300 mm×2 m) out-of-doors under a sunlight film (with a temperature of about 25 °C, a humidity of 60%-80%, and an illumination of 8000-20000 lux). Modified SM medium (see Table 2) was used. […] Then CO2 was aerated to saturation (pH 5.6) for 24 hours continuously. […] Then air was sufficiently aerated.

SMILES: O=C=O [CO2, carbon dioxide]
- Amoeba, result of microscope examination (Amoeba; Example 1, Dunaliella tertiolecta culture, CO2 aerated intermittently, pH 6.0-6.5, two days): most Amoebae were found to become spherical
- Amoeba, result of microscope examination (Amoeba; Example 1, after CO2 pH 6.0-6.5 two days, salinity reduced by 1%, air aerated, twenty-four hours later): almost no Amoeba
- Amoeba, result of microscope examination (Amoeba; Example 3, Chlorella sp. culture, CO2 aerated continuously, saturated, pH 5.6-5.7, one hour): most Amoebae were found to become spherical and lose activity
- Amoeba, result of microscope examination (Amoeba; Example 3, saturated CO2, twenty-seven hours after the first hour (about 28 hours)): almost no intact Amoeba was observed; also recorded: almost no Amoeba was found
- Amoeba, result of microscope examination (Amoeba; Example 4, after 1M NaOH pH 11.0-11.8 1 h, CO2 to saturation (pH 5.6) 24 hours): no Amoeba
- Amoeba, result of microscope examination (Amoeba; Example 5, Chlorococcum sp. culture, CO2 saturated, pH about 5.6-5.7, one hour): most Amoeba turned into spherical, were inactivated and could not change shape or move
- Amoeba, result of microscope examination (Amoeba; Example 5, saturated CO2, twenty-seven hours later): almost no intact Amoeba were observed
- Amoeba, result of microscope examination (Amoeba; Example 7, after 1M NaOH pH 11.5-12.0 1 h, CO2 to saturation (about pH 5.6) 24 hour): no Amoeba
- Amoeba, result of microscope examination (Amoeba; Example 9, Nannochloris sp. culture, CO2 aerated periodically at an interval of 2 hours (pH 5.0-8.5), two days): no Amoeba was observed; also recorded: essentially in control
- Amoeba, result of microscope examination (Amoeba; Example 10, Spirulina maxima culture, after 1M NaOH pH 11.5-12.0 1 h, CO2 to saturation (about pH 5.8) 23 hour): no Amoeba
- Amoeba, result of microscope examination (Amoeba; Example 12, after 1M ammonia pH 9.0 1 h, CO2 to saturation (pH 5.6) 24 hours): no Amoeba
- Amoeba, result of microscope examination (Amoeba; Example 14, after 1M ammonia pH 9.0 1 h, CO2 to saturation (about pH 5.6) 24 hour): no Amoeba
- Amoeba, result of microscope examination (Amoeba; Example 15, Spirulina maxima culture, after 1M ammonia pH 10.0 1 h, CO2 to saturation (about pH 5.8) 23 hour): no Amoeba
- growth of the algae (Chlorella sp.): almost not affected
- time until algae started to grow (FIG. 4) (Chlorella sp.): About 28 hours
- time until algae started to grow after recovery of pH7.0 or above (Chlorella sp.; pH 7): 24 hours
- time until algae resumed to grow after air aeration (Chlorella sp.; pH 9): Twenty-four
